In US5856175A, “Device for detecting microorganisms” (priority 1996, dated 1999):

Experiments:
Assay type in all cases: cell-based
[1] = system: Alcaligenes odorans 33585; assay: Pattern of inhibition using silicone-emulsion CO2 sensors (Table 3); conditions: 4 h, 37° C., 5×10^7 CFU/ml
Description: (§1) Microbial identification using the described CO2 sensors can also be based on the principle of growth inhibition. This system differs from the classical biochemical identification systems, as identification is based on selective growth inhibition by inhibitory agents, such as dyes, antibiotics, and other substances. Once again, the production of CO2 is the measure of growth. The growth pattern produced in the presence of these inhibitory agents identifies the species of the test microorganism. The amount of growth is compared with a growth control well that contains no inhibitor. A profile is derived using a two-stage quadratic discriminate analysis based on the results derived from the battery of inhibitory agents.
(§2) Microtiter plates (96 flat bottom wells) containing 0.05% xylenol blue silicone-emulsion sensors were filled with 100 microliters of microbial growth medium containing no inhibitors (growth control wells) and eighteen different dyes, antibiotics, and other inhibitory substances. Final concentrations of the inhibitors were achieved after addition of 100 microliters of inoculum (final inoculum of 5×10^7 CFU/ml) of the representative microorganisms.
(§3) After inoculating the microtiter tray, it was sealed with a pressure sensitive plastic plate sealer and initial readings were taken with a reflectance reader. The plate was then placed into a 37° C. incubator. After four hours incubation, the plate was removed and final reflectance readings were taken.

Escherichia coli 33582 = assay: as above; conditions: 4 h, 37° C., 5×10^7 CFU/ml
Description: as §1, §2, §3

Proteus mirabilis 33583 = assay: as above; conditions: 4 h, 37° C., 5×10^7 CFU/ml
Description: as §1, §2, §3

[2] = system: Pseudomonas aeruginosa 33584; assay: as above; conditions: 4 h, 37° C., 5×10^7 CFU/ml
Description: as §1, §2, §3

Escherichia coli 29194 = assay: Antimicrobial susceptibility pattern using silicone-emulsion CO2 sensors (Table 4); conditions: Escherichia coli, 29194, 4 h, 37° C., 5×10^7 CFU/ml, read-out: Percent growth as compared to a growth control without antibiotics
Description: (§4) Microtiter plates (96 flat bottom wells) containing 0.05% Xylenol blue silicone-emulsion sensors on the bottom were filled with 100 microliters of microbial growth medium containing no antibiotics (growth control wells) and nine different classes of antibiotics. Final concentrations of the antibiotics were achieved after addition of 100 microliters of inoculum (final inoculum of 5×10^7 CFU/ml) of the representative microorganisms. The concentrations of antibiotics used represent those used in determining if the test organism is sensitive, intermediate, or resistant to a particular antibiotic.
as §3
(§5) The results in Table 4 show a pattern of growth, no growth, or intermediate growth of the four test organisms with the nine classes of antibiotics. This is indicative of the type of susceptibility of the organisms to the antibiotics. The organisms tested vary in their susceptibility pattern because of differences in their physiological makeup.

[3] = system: Pseudomonas aeruginosa 27853; assay: as above; conditions: read-out: Percent growth as compared to a growth control without antibiotics
Description: as §4, §3, §5

[4] = system: Staphylococcus aureus 25923; assay: as above; conditions: read-out: Percent growth as compared to a growth control without antibiotics
Description: as §4, §3, §5

[5] = system: Streptococcus faecalis 29212; assay: as above; conditions: read-out: Percent growth as compared to a growth control without antibiotics
Description: as §4, §3, §5

CC1(C)S[C@@H]2[C@H](NC(=O)C(C(=O)O)c3ccccc3)C(=O)N2[C@H]1C(=O)O (stereo partly drawn) [Carbenicillin]
Percent growth as compared to a growth control without antibiotics ([1]; 40 mcg): 77%
Percent growth as compared to a growth control without antibiotics (Escherichia coli 33582; 40 mcg): 54%
Percent growth as compared to a growth control without antibiotics (Proteus mirabilis 33583; 40 mcg): 69%
Percent growth as compared to a growth control without antibiotics ([2]; 40 mcg): 89%

CC(=O)OCC1=C(C(=O)O)N2C(=O)[C@@H](NC(=O)Cc3cccs3)[C@H]2SC1 [Cephalothin]
Percent growth as compared to a growth control without antibiotics ([1]; 13.5 mcg): 66%
Percent growth as compared to a growth control without antibiotics (Escherichia coli 33582; 13.5 mcg): 53%
Percent growth as compared to a growth control without antibiotics (Proteus mirabilis 33583; 13.5 mcg): 26%
Percent growth as compared to a growth control without antibiotics ([2]; 13.5 mcg): 108%

O=C(N[C@H](CO)[C@H](O)c1ccc([N+](=O)[O-])cc1)C(Cl)Cl [Chloramphenicol]
activity at 4 µg/mL (Escherichia coli 29194; 4 mcg (per milliliter)): 14%
activity at 4 µg/mL ([3]; Pseudomonas aeruginosa, 27853, 4 h): 88%
activity at 4 µg/mL ([4]; Staphylococcus aureus, 25923, 4 h): 45%
activity at 4 µg/mL ([5]; Enterococcus faecalis, 29212, 4 h): 19%

[Cl][Co][Cl] [Cobalt chloride]
Percent growth as compared to a growth control without antibiotics ([1]; 205 mcg): 35%
Percent growth as compared to a growth control without antibiotics (Escherichia coli 33582; 205 mcg): 27%
Percent growth as compared to a growth control without antibiotics (Proteus mirabilis 33583; 205 mcg): 17%
Percent growth as compared to a growth control without antibiotics ([2]; 205 mcg): 52%

N[C@@H]1CON=C1O [Cycloserine]
Percent growth as compared to a growth control without antibiotics ([1]; 78 mcg): 116%
Percent growth as compared to a growth control without antibiotics ([1]; 240 mcg): 27%
Percent growth as compared to a growth control without antibiotics (Escherichia coli 33582; 78 mcg): 13%
Percent growth as compared to a growth control without antibiotics (Escherichia coli 33582; 240 mcg): 8%
Percent growth as compared to a growth control without antibiotics (Proteus mirabilis 33583; 78 mcg): 107%
Percent growth as compared to a growth control without antibiotics (Proteus mirabilis 33583; 240 mcg): 26%
Percent growth as compared to a growth control without antibiotics ([2]; 78 mcg): 56%
Percent growth as compared to a growth control without antibiotics ([2]; 240 mcg): 66%

O=C(O)c1cc(Br)cc(Br)c1O [Dibromosalicyclic acid]
Percent growth as compared to a growth control without antibiotics ([1]; 750 mcg): 25%
Percent growth as compared to a growth control without antibiotics (Escherichia coli 33582; 750 mcg): 83%
Percent growth as compared to a growth control without antibiotics (Proteus mirabilis 33583; 750 mcg): 38%
Percent growth as compared to a growth control without antibiotics ([2]; 750 mcg): 88%

CCCCCCCCCCCCN [Dodecylamine]
Percent growth as compared to a growth control without antibiotics ([1]; 18.75 mcg): 106%
Percent growth as compared to a growth control without antibiotics (Escherichia coli 33582; 18.75 mcg): 99%
Percent growth as compared to a growth control without antibiotics (Proteus mirabilis 33583; 18.75 mcg): 108%
Percent growth as compared to a growth control without antibiotics ([2]; 18.75 mcg): 118%

O=c1[nH]c(=O)n([C@H]2C[C@H](O)[C@@H](CO)O2)cc1F [Floxuridine]
Percent growth as compared to a growth control without antibiotics ([1]; 36 mcg): 75%
Percent growth as compared to a growth control without antibiotics (Escherichia coli 33582; 36 mcg): 55%
Percent growth as compared to a growth control without antibiotics (Proteus mirabilis 33583; 36 mcg): 35%
Percent growth as compared to a growth control without antibiotics ([2]; 36 mcg): 79%

CN(C)c1ccc(C(=C2C=CC(=[N+](C)C)C=C2)c2ccccc2)cc1 [Malachite green]
Percent growth as compared to a growth control without antibiotics ([1]; 3 mcg): 66%
Percent growth as compared to a growth control without antibiotics (Escherichia coli 33582; 3 mcg): 40%
Percent growth as compared to a growth control without antibiotics (Proteus mirabilis 33583; 3 mcg): 107%
Percent growth as compared to a growth control without antibiotics ([2]; 3 mcg): 87%

COc1cccc(OC)c1C(=O)N[C@@H]1C(=O)N2[C@@H]1SC(C)(C)[C@@H]2C(=O)O [Methicillin]
activity at 5 µg/mL (Escherichia coli 29194; 5 mcg (per milliliter)): 111%
activity at 5 µg/mL ([3]; Pseudomonas aeruginosa, 27853, 5 mcg (per milliliter), 4 h, 37° C., 5×10^7 CFU/ml): 146%
activity at 5 µg/mL ([4]; Staphylococcus aureus, 25923, 5 mcg (per milliliter), 4 h, 37° C., 5×10^7 CFU/ml): 16%
activity at 5 µg/mL ([5]; Enterococcus faecalis, 29212, 5 mcg (per milliliter), 4 h, 37° C., 5×10^7 CFU/ml): 116%

CN(C)c1ccc2nc3ccc(=[N+](C)C)cc-3sc2c1 [Methylene blue]
Percent growth as compared to a growth control without antibiotics ([1]; 255 mcg): 56%
Percent growth as compared to a growth control without antibiotics (Escherichia coli 33582; 255 mcg): 20%
Percent growth as compared to a growth control without antibiotics (Proteus mirabilis 33583; 255 mcg): 80%
Percent growth as compared to a growth control without antibiotics ([2]; 255 mcg): 90%
